In patent US20060069132A1, “Azolecarboxamide herbicides” (priority 2004, published 2006):

Tests used:
green foxtail [1] = experiment: Test C postemergence herbicide test; assay type: in vivo, Setaria viridis
In short: (§1)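 Injury scored visually against controls on a 0 (no effect) to 100 (complete control) scale, 12 to 14 days after treatment in greenhouse. Flooded paddy plants treated at 2-leaf stage; postemergence plants at 1- to 4-leaf stage, 2 to 18 cm tall.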

wild oat = experiment: Test C postemergence herbicide test; assay type: in vivo, Avenafatua
In short: as §1

green foxtail [2] = experiment: Test E pre-/postemergence herbicide test; assay type: in vivo, Setaria viridis
Source text: (§2) Seeds of plant species selected from bipinnate beggarticks (Bidens bipinnata L.), hairy beggarticks (Bidens radiata Thuill.), bermudagrass (Cynodon dactylon (L.) Pers.), Surinam grass (Urochloa decumbens (Staph) R. D. Webster, previously named Brachiaria decumbens Stapf), large crabgrass (Digitaria sanguinalis (L.) Scop.), green foxtail (Setaria viridis (L.) P. Beauv.), goosegrass (Eleusine indica (L.) Gaertn.), johnsongrass (Sorghum halepense (L.) Pers.), kochia (Kochia scoparia (L.) Schrad.), pitted morningglory (Ipomoea lacunosa L.), purple nutsedge (Cyperus rotundus L.), common ragweed (Ambrosia elatior L.), mustard (Brassica nigra (L.) W. D. J. Koch), guineagrass (Panicum maximum Jacq.), dallisgrass (Paspalum dilatatum Poir.), barnyardgrass (Echinochloa crus-galli (L). P. Beauv.), southern sandbur (Cenchrus echinatus L.), common sowthistle (Sonchus oleraceous L.), prickly sida (Sida spinosa L.), Italian ryegrass (Lolium multiflorum Lam.), common purslane (Portulaca oleracea L.), broadleaf signalgrass (Brachiaria platyphylla (Griseb.) Nash), common groundsel (Senecio vulgaris L.), common chickweed (Stellaria media (L.) Vill/Cyr.), tropical spiderwort (Commelina benghalensis L.), annual bluegrass (Poa annua L.), downy bromegrass (Bromus tectorum L.), itchgrass (Rottboellia cochinchinensis (L.) L.f.), quackgrass (Elytrigia repens (L.) Nevski), Canada horseweed (Erigeron Canadensis L.), field bindweed (Convolvulus arvensis L.), spotted spurge (Euphorbia maculata L.), common mallow (Malva sylvestris (=s silvestris) L.), and Russian thistle (Salsola kali L. ssp. Ruthenica (Iljin) Soo) were planted and treated preemergence with test chemicals formulated in a non-phytotoxic solvent mixture which included a surfactant.
(§3) At the same time, plants selected from these weed species were treated with postemergence applications of some of the test chemicals formulated in the same manner. Plants ranged in height from 2 to 18 cm (1- to 4-leaf stage) for postemergence treatments. Treated plants and controls were maintained in a greenhouse for 12 to 14 days, after which time all species were compared to controls and visually evaluated. Plant response ratings, summarized in Table E, are based on a scale of 0 to 100 where 0 is no effect and 100 is complete control. A dash (-) response means no test result.

kochia = experiment: Test E pre-/postemergence herbicide test; assay type: in vivo, Kochia scoparia; settings: Preemergence
Source text: as §2, §3

purple nutsedge = experiment: Test E pre-/postemergence herbicide test; assay type: in vivo, Cyperus rotundus
Source text: as §2, §3

mustard = experiment: Test E pre-/postemergence herbicide test; assay type: in vivo, Brassica nigra
Source text: as §2, §3

guineagrass = experiment: Test E pre-/postemergence herbicide test; assay type: in vivo, Panicum maximum
Source text: as §2, §3

common sowthistle = experiment: Test E pre-/postemergence herbicide test; assay type: in vivo, Sonchus oleraceous
Source text: as §2, §3

common groundsel = experiment: Test E pre-/postemergence herbicide test; assay type: in vivo, Senecio vulgaris
Source text: as §2, §3

common chickweed = experiment: Test E pre-/postemergence herbicide test; assay type: in vivo, Stellaria media
Source text: as §2, §3

[3] = Postemergence, 250 g ai/ha, scale 0 to 100, 0 no effect, 100 complete control
[4] = postemergence, 125 g ai/ha, scale 0 to 100
[5] = postemergence, 62 g ai/ha, scale 0 to 100
[6] = Postemergence, 500 g ai/ha, scale 0 to 100
[7] = Postemergence, 250 g ai/ha, scale 0 to 100
[8] = Preemergence, 62 g ai/ha, scale 0 to 100
[9] = Preemergence, 125 g ai/ha, scale 0 to 100
[10] = Preemergence, 250 g ai/ha, scale 0 (no effect) to 100 (complete control)
[11] = Preemergence, 500 g ai/ha, scale 0 (no effect) to 100 (complete control)
[12] = 250 g ai/ha, scale 0 (no effect) to 100 (complete control)
[13] = 500 g ai/ha, scale 0 (no effect) to 100 (complete control)

CCn1nc(C(C)(C)C)cc1C(=O)Nc1cccc(C(=O)NCC2CC2)c1 [Compound 62]
50: Plant response rating, Foxtail, Green (green foxtail [1]; [3]) | Plant response rating, Foxtail, Green (green foxtail [1]; [4]) | Plant response rating, Oat, Wild (wild oat; [3])
30: Plant response rating, Oat, Wild (wild oat; [5])
40: Plant response rating, Foxtail, Green (green foxtail [1]; [5]) | Plant response rating, Oat, Wild (wild oat; [4])

CCCCOc1cccc(NC(=O)c2cc(C(C)(C)C)nn2CC)c1 [Compound 137]
40: Plant response rating, Oat, Wild (wild oat; [3]) | Plant response rating, Oat, Wild (wild oat; [4])
50: Foxtail, Green plant response rating (green foxtail [1]; [6]) | Plant response rating, Foxtail, Green (green foxtail [1]; [3]) | Plant response rating, Foxtail, Green (green foxtail [1]; [4]) | Oat, Wild plant response rating (wild oat; [6])
20: Plant response rating, Oat, Wild (wild oat; [5])
30: Plant response rating, Foxtail, Green (green foxtail [1]; [5])

CCNC(=O)c1ccc(F)c(NC(=O)c2cn(C(C)(C)C)nc2CC)c1 [Compound 193]
40: Plant response rating, Nutsedge, Purple (purple nutsedge; [7]) | Plant response rating, Groundsel (common groundsel; [4]) | Plant response rating, Chickweed (common chickweed; [5])
50: Plant response rating, Foxtail, Green (green foxtail [2]; [7]) | Plant response rating, Nutsedge, Purple (purple nutsedge; [10])
70: Plant response rating, Nutsedge, Purple (purple nutsedge; [6]) | Plant response rating, Guineagrass (guineagrass; [7]) | Plant response rating, Guineagrass (guineagrass; [9]) | Plant response rating, Groundsel (common groundsel; [7])
30: Plant response rating, Foxtail, Green (green foxtail [2]; [9]) | Plant response rating, Nutsedge, Purple (purple nutsedge; [9])
90: Plant response rating, Foxtail, Green (green foxtail [2]; [6])
20: Plant response rating, Foxtail, Green (green foxtail [2]; [4]) | Plant response rating, Nutsedge, Purple (purple nutsedge; [4]) | Plant response rating, Guineagrass (guineagrass; [5]) | Plant response rating, Groundsel (common groundsel; [8]) | Plant response rating, Groundsel (common groundsel; [5])
95: Plant response rating, Black Mustard (mustard; [7]) | Plant response rating, Black Mustard (mustard; [4]) | Plant response rating, Sowthistle (common sowthistle; [6]) | Plant response rating, Sowthistle (common sowthistle; [7]) | Plant response rating, Sowthistle (common sowthistle; [9]) | Plant response rating, Sowthistle (common sowthistle; [10]) | Plant response rating, Sowthistle (common sowthistle; [11]) | Plant response rating, Chickweed (common chickweed; [7])
10: Plant response rating, Foxtail, Green (green foxtail [2]; [8]) | Plant response rating, Foxtail, Green (green foxtail [2]; [5]) | Plant response rating, Sowthistle (common sowthistle; [5])
60: Plant response rating, Black Mustard (mustard; [5]) | Plant response rating, Guineagrass (guineagrass; [8]) | Plant response rating, Guineagrass (guineagrass; [4]) | Plant response rating, Sowthistle (common sowthistle; [4])
80: Plant response rating, Foxtail, Green (green foxtail [2]; [10]) | Plant response rating, Nutsedge, Purple (purple nutsedge; [11]) | Plant response rating, Black Mustard (mustard; [8]) | Plant response rating, Sowthistle (common sowthistle; [8]) | Plant response rating, Chickweed (common chickweed; [8])
0: Plant response rating, Nutsedge, Purple (purple nutsedge; [8]) | Plant response rating, Nutsedge, Purple (purple nutsedge; [5])
100: Plant response rating, Foxtail, Green (green foxtail [2]; [11]) | Plant response rating, Kochia (kochia; 62 g ai/ha, scale 0 to 100) | Plant response rating, Kochia (kochia; 125 g ai/ha, scale 0 to 100) | Plant response rating, Kochia (kochia; [12]) | Plant response rating, Kochia (kochia; [13]) | Plant response rating, Black Mustard (mustard; [6]) | Plant response rating, Black Mustard (mustard; [9]) | Plant response rating, Black Mustard (mustard; [10]) | Plant response rating, Black Mustard (mustard; [11]) | Plant response rating, Guineagrass (guineagrass; [6]) | Plant response rating, Guineagrass (guineagrass; [10]) | Plant response rating, Guineagrass (guineagrass; [11]) | Plant response rating, Groundsel (common groundsel; [6]) | Plant response rating, Groundsel (common groundsel; [9]) | Plant response rating, Groundsel (common groundsel; [10]) | Plant response rating, Groundsel (common groundsel; [11]) | Plant response rating, Chickweed (common chickweed; [6]) | Plant response rating, Chickweed (common chickweed; [9]) | Plant response rating, Chickweed (common chickweed; [10]) | Plant response rating, Chickweed (common chickweed; [11])

CCc1nn(C(C)(C)C)cc1C(=O)Nc1cc(C(=O)N(C)C)ccc1F [Compound 222, N-[5-[(dimethylamino)carbonyl]-2-fluorophenyl]-1-(1,1-dimethylethyl)-3-ethyl-1H-pyrazole-4-carboxamide]
100: Plant response rating, Foxtail, Green (green foxtail [2]; [10]) | Plant response rating, Foxtail, Green (green foxtail [2]; [11]) | Plant response rating, Kochia (kochia; 125 g ai/ha, scale 0 to 100) | Plant response rating, Kochia (kochia; [12]) | Plant response rating, Kochia (kochia; [13]) | Plant response rating, Black Mustard (mustard; [9]) | Plant response rating, Black Mustard (mustard; [10]) | Plant response rating, Black Mustard (mustard; [11]) | Plant response rating, Guineagrass (guineagrass; [7]) | Plant response rating, Guineagrass (guineagrass; [10]) | Plant response rating, Guineagrass (guineagrass; [11]) | Plant response rating, Sowthistle (common sowthistle; [6]) | Plant response rating, Sowthistle (common sowthistle; [7]) | Plant response rating, Groundsel (common groundsel; [6]) | Plant response rating, Groundsel (common groundsel; [9]) | Plant response rating, Groundsel (common groundsel; [10]) | Plant response rating, Groundsel (common groundsel; [11]) | Plant response rating, Chickweed (common chickweed; [6]) | Plant response rating, Chickweed (common chickweed; [7]) | Plant response rating, Chickweed (common chickweed; [9]) | Plant response rating, Chickweed (common chickweed; [10]) | Plant response rating, Chickweed (common chickweed; [11]) | Plant response rating, Chickweed (common chickweed; [4])
70: Plant response rating, Nutsedge, Purple (purple nutsedge; [10]) | Plant response rating, Guineagrass (guineagrass; [4]) | Plant response rating, Guineagrass (guineagrass; [5]) | Plant response rating, Groundsel (common groundsel; [4])
95: Plant response rating, Black Mustard (mustard; [6]) | Plant response rating, Black Mustard (mustard; [7]) | Plant response rating, Guineagrass (guineagrass; [9]) | Plant response rating, Sowthistle (common sowthistle; [11]) | Plant response rating, Groundsel (common groundsel; [7])
75: Plant response rating, Sowthistle (common sowthistle; [8])
80: Plant response rating, Foxtail, Green (green foxtail [2]; [7]) | Plant response rating, Nutsedge, Purple (purple nutsedge; [11]) | Plant response rating, Chickweed (common chickweed; [8]) | Plant response rating, Chickweed (common chickweed; [5])
50: Plant response rating, Foxtail, Green (green foxtail [2]; [9])
30: Plant response rating, Kochia (kochia; 62 g ai/ha, scale 0 to 100) | Plant response rating, Nutsedge, Purple (purple nutsedge; [7]) | Plant response rating, Groundsel (common groundsel; [8])
90: Plant response rating, Black Mustard (mustard; [8]) | Plant response rating, Black Mustard (mustard; [4]) | Plant response rating, Black Mustard (mustard; [5]) | Plant response rating, Guineagrass (guineagrass; [8]) | Plant response rating, Sowthistle (common sowthistle; [9]) | Plant response rating, Sowthistle (common sowthistle; [10])
20: Plant response rating, Sowthistle (common sowthistle; [5])
60: Plant response rating, Sowthistle (common sowthistle; [4])
40: Plant response rating, Foxtail, Green (green foxtail [2]; [4]) | Plant response rating, Nutsedge, Purple (purple nutsedge; [9]) | Plant response rating, Groundsel (common groundsel; [5])
10: Plant response rating, Foxtail, Green (green foxtail [2]; [8]) | Plant response rating, Foxtail, Green (green foxtail [2]; [5]) | Plant response rating, Nutsedge, Purple (purple nutsedge; [8]) | Plant response rating, Nutsedge, Purple (purple nutsedge; [4]) | Plant response rating, Nutsedge, Purple (purple nutsedge; [5])
